{
  "source": "patent US11628169B2",
  "about": "“Therapeutic drug for motor complications in Parkinson's disease” (Sumitomo Pharma Co., Ltd., priority 2020, dated 2023)",
  "key": {"[1]": {"test": "Plasma tandospirone concentration after observation of behavior in PD-LID rats", "format": "in vivo, rat", "conditions": "continuous subcutaneous infusion 60 mg/mL (mean 0.78 mg/kg/hour as citrate)", "procedure": "50 μL of rat plasma sample was fractionated into a polypropylene microtube. 50 μL of methanol (50 μL of standard solution for calibration curve sample) and 200 μL of internal standard solution (Bezafibrate methanol solution: 200 nmol/L, 200 μL of methanol for blank sample) are added and stirred for about 10 seconds with a mixer. This is centrifuged (4° C., 4500 rpm, 10 min), and then the supernatant is subjected to vacuum filtration using a filter (FastRemover MF 0.2 μm). 70 μL of aqueous 10 mmol/L ammonium acetate solution is added to 70 μL of the resulting filtrate and stirred for about 10 seconds with a mixer to prepare a measurement sample.\nWhen evaluating a tape agent, the hair on the abdominal region of rats was shaved before the evaluation date. The tape agent of formulation 2 was applied to the abdominal regions of rats on the evaluation date at 60 cm^2/kg (37 mg/kg). After 4 hours from application, a levodopa containing solution was intraperitoneally administered to observe and evaluate the behavior. Individuals with 50% or more of the tape agent coming off during the test were excluded from analysis. […]\nAfter 4 hours, a levodopa containing solution was administered to observe and evaluate the behavior (day 0 of implanting the pump). […] The behavior was also observed and evaluated on day 13 of implanting the pump."}, "[2]": {"tested_on": "6-OHDA-lesioned rats", "test": "Prevention/suppression of dyskinesia-like symptoms during repeated levodopa administration", "format": "in vivo, rat", "conditions": "vs solvent group; for increase in total AIMs score associated with repeated administration of levodopa: days 3, 5, 9, 15", "procedure": "The prepared solution was used after injection into an ALZET® Osmotic Pump MODEL 2ML2 (4.53 μL/hour; DURECT).\n6-OHDA-lesioned rats were assigned to each administration group using the number of apomorphine hydrochloride hemihydrate induced rotations and body weight as indicators. […] The osmotic pump implanted subcutaneously was retrieved after the observation and evaluation of behavior on day 15. The behavior was also observed and evaluated on the following day (day 16 of repeated administration of levodopa).\nThe test results were statistically analyzed by comparison with the solvent administration group using Steel test with the total AIMs score on day 16 of repeated levodopa administration as the parameter. * indicates p<0.05 and ** indicates p<0.01, meaning that there is a significant difference compared to the solvent administration group."}},
  "data": [
    {"substance": "tandospirone citrate", "values": [
      {"measurement": "mean value of the plasma tandospirone concentrations (value converted in terms of free form)", "setting": "[1]; day 0 of implanting the pump", "result": 281, "unit": "ng/mL"},
      {"measurement": "mean value of the plasma tandospirone concentrations (value converted in terms of free form)", "setting": "[1]; day 13 of implanting the pump", "result": 143, "unit": "ng/mL"},
      {"measurement": "increase in total AIMs score associated with repeated administration of levodopa", "setting": "[2]; continuous subcutaneous infusion 30 mg/mL (mean of 0.41 mg/kg/hour)", "result": "suppressed the increase in total AIMs score"},
      {"measurement": "total AIMs score on the day after completion of administration (day 16)", "setting": "[2]; continuous subcutaneous infusion 30 mg/mL or 60 mg/mL, pump retrieved day 15", "result": "significantly lower"},
      {"measurement": "increase in total AIMs score associated with repeated administration of levodopa", "setting": "[2]; continuous subcutaneous infusion 60 mg/mL (mean of 0.83 mg/kg/hour)", "result": "suppressed the increase in total AIMs score"}
    ]}
  ]
}
